# Measured values taken from ChEMBL document CHEMBL5375968, “Peptide TK-HR from the Skin of Chinese Folk Medicine Frog Hoplobatrachus Rugulosus Accelerates Wound Healing via the Activation of the Neurokinin-1 Receptor” (J Med Chem, 2023).
# The source made the active and inactive calls. No cut-off for these calls is given here.
# Key:
# [1] = Induction of wound healing in BALB/c mouse model of full-thickness wounds at 50 ug/ml, TOP bid pretreated with Aprepitant for 2 hrs followed by compound administration measured after 8 days (reference value: 82.1 %); format: functional; settings: dose 50 µg/ml, time 8 day
# [2] = Induction of TGF-beta1 level in Aprepitant-treated mouse RAW264.7 cells at 10 uM incubated for 24 hrs by ELISA; format: functional
# RAW264.7 [3] = assay: Induction of IL-1beta expression in mouse RAW264.7 cells incubated for 24 hrs by ELISA; format: functional, cell-based; settings: dose 2.5-20 µM
# RAW264.7 [4] = assay: Induction of phagocytosis in mouse RAW264.7 cells cultured with Escherichia coli ATCC 25922 assessed as number of surviving engulfed bacteria at 10 uM incubated for 24 hrs followed by bacterial exposure for 1 hr and further treated with gentamycin for 2 hrs by plate counting method (reference value: 37); format: functional
# Mus musculus [5] = species: Mus musculus; assay: Induction of wound healing in BALB/c mouse model of full-thickness wounds assessed as alignment of collagen fibers close to normal skin at 50 to 200 ug/ml, TOP bid measured after 8 days by Masson's Trichome staining based analysis; format: functional; settings: dose 50-200 µg/ml, time 8.0 day
# HUVEC [6] = assay: Induction of cell migration in HUVEC cells assessed as formation of cytoplasmic protrusions at 20 uM measured after 24 hrs by immunofluorescence microscopy; format: functional, cell-based; settings: Homo sapiens
# HUVEC [7] = assay: Angiogenic activity in HUVEC cells assessed as increase in tube formation at 20 uM measured for 4 hrs by microscopic analysis relative to control; format: functional, Homo sapiens
# Mus musculus [8] = species: Mus musculus; assay: Induction of wound healing in BALB/c mouse model of full-thickness wounds assessed as increase in number of blood vessels in wound skin at 50 ug/ml, TOP bid measured after 4 days by IHC analysis; format: functional; settings: dose 50.0 µg/ml, time 4.0 day
# RAW264.7 [9] = assay: Effect on total Smad2 level in mouse RAW264.7 cells at 2.5 to 20 uM incubated for 4 hrs by Western blot analysis; format: functional, cell-based; settings: dose 2.5-20 µM
# HaCaT [10] = assay: Induction of cell migration in Aprepitant-treated human HaCaT cells assessed as healing rate at 20 uM measured after 24 hrs by scratch healing assay (reference value: 36.8 %); format: functional
# HaCaT [11] = assay: Induction of cell migration in human HaCaT cells assessed as healing rate at 20 uM measured after 24 hrs by scratch healing assay (reference value: 36.8 %); format: functional
# RAW264.7 [12] = assay: Induction of cell migration in Aprepitant-treated mouse RAW264.7 cells at 5 to 20 uM incubated for 24 hrs by crystal violet staining based microscopy; format: functional; settings: dose 5-20 µM
# [13] = Induction of TGF-beta1 level in mouse RAW264.7 cells at 20 uM incubated for 24 hrs by ELISA; format: functional
# [14] = Induction of wound healing in BALB/c mouse model of full-thickness wounds at 200 ug/ml, TOP bid measured after 4 days (reference value: 48.6 %); format: functional; settings: dose 200 µg/ml, time 4 day
# RAW264.7 [15] = assay: Effect on total Smad3 level in mouse RAW264.7 cells at 2.5 to 20 uM incubated for 4 hrs by Western blot analysis; format: functional, cell-based; settings: dose 2.5-20 µM
# RAW264.7 [16] = assay: Induction of phagocytosis in mouse RAW264.7 cells assessed as increase in neutral red dye uptake by measuring optical density at 540 nm at 20 uM incubated for 24 hrs followed by dye addition measured after 4 hrs by absorbance based assay (reference value: 0.073); format: functional; settings: time 28 hrs
# Mus musculus [17] = species: Mus musculus; assay: (§1) Induction of wound healing in BALB/c mouse model of full-thickness wounds assessed as recruitment of M1-type macrophages in wound skin at 50 ug/ml, TOP bid measured after 2 days by flow cytometry (reference value: 60.9 %); format: functional; settings: dose 50.0 µg/ml, time 2.0 day
# [18] = as §1; format: functional; settings: dose 50 µg/ml, time 2 day
# [19] = Induction of wound healing in BALB/c mouse model of full-thickness wounds at 100 ug/ml, TOP bid measured after 8 days (reference value: 81.0 %); format: functional; settings: dose 100 µg/ml, time 8 day
# Mus musculus [20] = species: Mus musculus; assay: Induction of wound healing in BALB/c mouse model of full-thickness wounds assessed as increase in IL-10 level in wound skin at 50 ug/ml, TOP bid measured after 4 days by ELISA; format: functional; settings: dose 50.0 µg/ml, time 4.0 day
# Bacillus subtilis = assay: Antimicrobial activity against Bacillus subtilis CMCC 63501 assessed as microbial growth inhibition at 100 uM; format: functional, organism-based
# Neutrophil = assay: Induction of phagocytosis in BALB/c mouse neutrophils cultured with CFSE-labeled Escherichia coli ATCC 25922 at 10 uM pretreated for 1 hr followed by bacterial exposure measured after 1.5 hrs by fluorescence microscopy; format: functional, cell-based; settings: time 2.5 hrs
# HUVEC [21] = assay: Angiogenic activity in Aprepitant-treated HUVEC cells assessed as increase in tube formation at 20 uM measured for 4 hrs by microscopic analysis; format: functional, cell-based; settings: Homo sapiens
# [22] = Induction of wound healing in BALB/c mouse model of full-thickness wounds at 50 ug/ml, TOP bid pretreated with Aprepitant for 2 hrs followed by compound administration measured after 4 days (reference value: 50.6 %); format: functional; settings: dose 50 µg/ml, time 4 day
# [23] = Toxicity in BALB/c mouse model of full-thickness wounds assessed as inflammatory foci in liver at 200 ug/ml, TOP bid measured upto 8 days by H and E staining based analysis; format: tissue-based; settings: in vivo, topical_or_ocular, 192 h, dose 200 µg/ml, time < 8 day
# HaCaT [24] = assay: Induction of cell migration in human HaCaT cells assessed as actin stress fiber formation at peripheral side of cytoplasmic membrane at 20 uM measured after 24 hrs by immunofluorescence microscopy; format: functional, cell-based
# RAW264.7 [25] = assay: Upregulation of phosphorylated ERK level in Aprepitant-treated mouse RAW264.7 cells at 2.5 to 20 uM incubated for 4 hrs by Western blot analysis; format: functional, cell-based; settings: dose 2.5-20 µM
# RAW264.7 [26] = assay: Effect on total JNK level in mouse RAW264.7 cells at 2.5 to 20 uM incubated for 4 hrs by Western blot analysis; format: functional, cell-based; settings: dose 2.5-20 µM
# RAW264.7 [27] = assay: Cytotoxicity against mouse RAW264.7 cells assessed as cell viability at 5 to 40 uM incubated for 24 hrs by MTT assay; format: toxicity, cell-based; settings: raw264.7, 24 h, dose 5-40 µM
# HUVEC [28] = assay: Angiogenic activity in HUVEC cells assessed as increase in tube formation at 10 uM measured for 4 hrs by microscopic analysis relative to control; format: functional, Homo sapiens
# Aorta = assay: Ex vivo angiogenic activity in C57BL/6 mouse aortic ring assessed as increase in sprouting by measuring vessel outgrowth area at 20 uM measured for 7 days by microscopic analysis relative to control; format: functional; settings: time 7 day
# Mus musculus [29] = species: Mus musculus; assay: Induction of wound healing in BALB/c mouse model of full-thickness wounds assessed as decrease in recruitment of M1-type macrophages in wound skin at 50 ug/ml, TOP bid measured after 4 days by IHC analysis; format: functional; settings: dose 50.0 µg/ml, time 4.0 day
# HUVEC [30] = assay: Induction of cell migration in Aprepitant-treated HUVEC cells assessed as healing rate at 20 uM measured after 48 hrs by scratch healing assay (reference value: 57.2 %); format: functional, Homo sapiens
# [31] = Toxicity in BALB/c mouse model of full-thickness wounds assessed as adverse effect on body weight at 50 to 200 ug/ml, TOP bid measured upto 8 days; settings: in vivo, topical_or_ocular, 192 h, dose 50-200 µg/ml, time < 8 day
# Pseudomonas aeruginosa = assay: Antimicrobial activity against Pseudomonas aeruginosa ATCC 27853 assessed as microbial growth inhibition at 100 uM; format: functional, organism-based
substance,measurement,setting,value
H-KPNPDRFYGLM-NH2,Activity,[1],82.5%
same,Activity,[2],43.7 pg/mL
same,Activity,RAW264.7 [3],Dose-Dependent Effect
same,Activity,RAW264.7 [4],25
same,Activity,Mus musculus [5],Active
same,Activity,HUVEC [6],Active
same,Activity,HUVEC [7],181.4%
same,Activity,Mus musculus [8],Active
same,Activity,RAW264.7 [9],inactive
same,Activity,HaCaT [10],41.7%
same,Activity,HaCaT [11],72.1%
same,Activity,RAW264.7 [12],inactive
same,Activity,[13],119.3 pg/mL
same,Activity,[14],77.1%
same,Activity,RAW264.7 [15],inactive
same,OD,RAW264.7 [16],0.109
same,Activity,Mus musculus [17],Active
same,Activity,[18],79.2%
same,Activity,[19],100%
same,Activity,Mus musculus [20],Active
same,Activity,Bacillus subtilis,inactive
same,Activity,Neutrophil,Active
same,Activity,HUVEC [21],inactive
same,Activity,[22],56.1%
same,Activity,[23],Non-Toxic
same,Activity,HaCaT [24],Active
same,Activity,RAW264.7 [25],inactive
same,Activity,RAW264.7 [26],inactive
same,Activity,RAW264.7 [27],Non-Toxic
same,Activity,HUVEC [28],139.5%
same,Activity,Aorta,193.8%
same,Activity,Mus musculus [29],Active
same,Activity,HUVEC [30],65%
same,Activity,[31],Non-Toxic
same,Activity,Pseudomonas aeruginosa,inactive
